Experimental data published in patent US11452674B2, “Non-solvent dental adhesive composition” (KURARAY NORITAKE DENTAL INC., priority 2017, dated 2022).
In brackets after ≈: the same amount, converted by molar mass.

test: Solubility in water at 25° C.; details: 25° C.

Solubility in water at 25° C. [mg/mL] | SMILES
60 | Cc1cc(C)c(C(=O)P(=O)(O)C(=O)c2c(C)cc(C)cc2C)c(C)c1 [BAPO-ONa, sodium bis(2,4,6-trimethylbenzoyl)phosphine oxide]
1.7 (≈ 10.2 mM) | CC12CCC(C(=O)C1=O)C2(C)C (stereo not drawn) [CQ, d1-camphorquinone]

SMILES | Solubility in water at 25° C. [mg/mL]
Cc1cc(C)c(C(=O)P(=O)(c2ccccc2)c2ccccc2)c(C)c1 [TMDPO, 2,4,6-trimethylbenzoykliphenylphosphine oxide, reference compound] | < 1

same assay, conditions: 25 °C

SMILES | solubility [mg/mL]
Cc1cc(C)c(C(=O)P(=O)(O)c2ccccc2)c(C)c1 [Li-TPO, lithium (2,4,6-trimethylbenzoyl)phenylphosphine oxide] | 45 (≈ 156 mM)

same assay, conditions: 25 °C, Solubility in water at 25° C.

solubility [mg/mL] | SMILES
< 1 | Cc1cc(C)c(C(=O)P(=O)(C(=O)c2c(C)cc(C)cc2C)c2ccccc2)c(C)c1 [BAPO, bis(2,4,6-trimethylbenzoyl)phenylphosphine oxide, reference compound]
52 (≈ 145 mM) | Cc1cc(C)c(C(=O)P(=O)(O)C(=O)c2c(C)cc(C)cc2C)c(C)c1 [BAPO-OLi, lithium bis(2,4,6-trimethylbenzoyl)phosphine oxide]

Continued, compound first:

SMILES | solubility [mg/mL]
COCCOCCOCC(=O)Nc1c(C)cc(C)c(C(=O)P(=O)(C(=O)c2c(C)cc(C)c(NC(=O)COCCOCCOC)c2C)c2ccccc2)c1C [BAPO-A1, reference compound] | < 10
Cc1cc(C)c(C(=O)P(=O)(O)c2ccccc2)c(C)c1 [Na-TPO] | 28 (≈ 97.1 mM)
COCCOCCOC(=O)Nc1c(C)cc(C)c(C(=O)P(=O)(c2ccccc2)c2ccccc2)c1C [TMDPO-A1, reference compound] | < 10
